± gives the standard deviation of the averaged measurements.
Assays:
[1] = compound: CNCc1ccc(-c2[nH]c3cc(F)cc4c3c2CCNC4=O)cc1; test: surviving fraction relative to DMSO-only wells; higher = less growth inhibition; details: exposure time: 5 days
Summary of the method: (§1)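 For each tumour cell line, log-phase cells were put into 384-well plates at 250–500 cells per well, then after 24 hours exposed continuously for five days to inhibitors at 0.5, 1, 5, 10, 50, 100, 500 and 1000 nM. Viability was assessed by CellTiter-Glo luminescence, with surviving fraction expressed relative to the median of DMSO-only wells. Lines were screened three times and retained only if replicate Pearson r exceeded 0.7 and median Z' exceeded 0.3.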

[2] = compound: C[C@@H](Oc1cc(-c2cnn(C3CCNCC3)c2)cnc1N)c1c(Cl)ccc(F)c1Cl; test: as above; details: exposure time: 5 days
Summary of the method: as §1

Row | Test System | surviving fraction ([1]; 0.5 nM) | surviving fraction ([1]; 1 nM) | surviving fraction ([1]; 5 nM) | surviving fraction ([1]; 10 nM) | surviving fraction ([1]; 50 nM) | surviving fraction ([1]; 100 nM) | surviving fraction ([1]; 500 nM) | surviving fraction ([1]; 1000 nM) | surviving fraction ([2]; 0.5 nM) | surviving fraction ([2]; 1 nM) | surviving fraction ([2]; 5 nM) | surviving fraction ([2]; 10 nM) | surviving fraction ([2]; 50 nM) | surviving fraction ([2]; 100 nM) | surviving fraction ([2]; 500 nM) | surviving fraction ([2]; 1000 nM)
1 | DU4475 BREAST | 1.02 ± 0.066 | 0.921 ± 0.1 | 0.969 ± 0.03 | 0.881 ± 0.063 | 0.807 ± 0.12 | 0.696 ± 0.053 | 0.612 ± 0.088 | 0.479 ± 0.074 | 0.798 ± 0.13 | 0.753 ± 0.041 | 0.83 ± 0.15 | 0.706 ± 0.14 | 0.748 ± 0.089 | 0.722 ± 0.23 | 0.423 ± 0.18 | 0.0877 ± 0.041
2 | SAOS2 BONE | 1.12 ± 0.044 | 1.14 ± 0.08 | 1.14 ± 0.02 | 1.12 ± 0.16 | 0.844 ± 0.061 | 0.833 ± 0.069 | 0.747 ± 0.1 | 0.662 ± 0.021 | 0.7737 ± 0.0011 | 0.866 ± 0.018 | – | 0.874 ± 0.036 | 1.06 ± 0.08 | 0.971 ± 0.046 | 0.319 ± 0.012 | 0.164 ± 0.012
3 | H23 LUNG | 1.05 ± 0.061 | 1.07 ± 0.066 | 1.05 ± 0.025 | 1.1 ± 0.011 | 1.16 ± 0.076 | 1.11 ± 0.043 | 1.14 ± 0.035 | 1.12 ± 0.021 | 0.9503 ± 0.0081 | – | 0.963 ± 0.034 | – | 0.9953 ± 0.0047 | 0.993 ± 0.023 | 0.926 ± 0.049 | 0.688 ± 0.019
4 | SUM149 BREAST | 0.887 ± 0.032 | 0.997 ± 0.037 | 0.778 ± 0.039 | 0.779 ± 0.1 | 0.673 ± 0.067 | 0.665 ± 0.088 | 0.497 ± 0.033 | 0.494 ± 0.014 | 0.897 ± 0.12 | 0.877 ± 0.094 | – | 0.86 ± 0.045 | – | 0.893 ± 0.1 | 0.73 ± 0.064 | 0.415 ± 0.029
5 | SUM44 BREAST | 0.927 ± 0.097 | 0.981 ± 0.098 | 1.01 ± 0.14 | 1.02 ± 0.11 | 0.841 ± 0.088 | 0.911 ± 0.027 | 0.892 ± 0.061 | 0.896 ± 0.042 | 0.865 ± 0.038 | 0.874 ± 0.056 | 0.983 ± 0.021 | 0.935 ± 0.029 | – | 1.04 ± 0.026 | 0.892 ± 0.077 | 0.798 ± 0.046
6 | CAL72 BONE | 1.09 ± 0.041 | 1.072 ± 0.0085 | 1.1 ± 0.026 | 1.08 ± 0.016 | 0.999 ± 0.073 | 0.961 ± 0.075 | 0.962 ± 0.032 | 0.902 ± 0.019 | 1 ± 0.02 | 1.04 ± 0.024 | 1.02 ± 0.029 | – | 1.09 ± 0.047 | 1.1 ± 0.013 | 0.903 ± 0.025 | 0.9047 ± 0.0064
7 | YAMATO SYNOVIAL | 1.32 ± 0.043 | 1.35 ± 0.12 | 1.28 ± 0.066 | 1.3 ± 0.1 | 0.949 ± 0.13 | 0.982 ± 0.11 | 0.794 ± 0.022 | 0.811 ± 0.13 | 0.796 ± 0.0095 | 0.763 ± 0.069 | 0.79 ± 0.015 | 0.724 ± 0.12 | 0.425 ± 0.015 | 0.309 ± 0.014 | 0.279 ± 0.014 | 0.333 ± 0.024
8 | COLO320DM LARGE INTESTINE | 1.04 ± 0.067 | 1.05 ± 0.021 | 1.12 ± 0.027 | 0.962 ± 0.1 | 0.96 ± 0.04 | 0.933 ± 0.12 | 0.933 ± 0.066 | 0.901 ± 0.014 | – | 1.13 ± 0.071 | 1.02 ± 0.041 | 0.977 ± 0.042 | 1.05 ± 0.042 | 1.02 ± 0.027 | 0.512 ± 0.0092 | 0.341 ± 0.011
9 | VP229 BREAST | 1.15 ± 0.18 | 1.01 ± 0.14 | 1.04 ± 0.058 | 1.01 ± 0.12 | 0.954 ± 0.042 | 0.848 ± 0.076 | 0.823 ± 0.05 | 0.917 ± 0.067 | 0.809 ± 0.029 | – | 0.95 ± 0.11 | 0.777 ± 0.12 | 1.08 ± 0.098 | – | – | 0.544 ± 0.024
10 | U2OS BONE | 1 ± 0.016 | 1.01 ± 0.051 | 1.03 ± 0.036 | 1.06 ± 0.031 | 0.961 ± 0.011 | 0.926 ± 0.037 | 0.883 ± 0.013 | 0.774 ± 0.052 | 0.938 ± 0.047 | 0.974 ± 0.027 | 0.98 ± 0.028 | – | – | 0.976 ± 0.052 | 0.474 ± 0.02 | 0.472 ± 0.012
11 | SCC90 HEADNECK | 0.96 ± 0.039 | 1 ± 0.071 | 0.998 ± 0.058 | 1.06 ± 0.1 | 0.934 ± 0.13 | 0.916 ± 0.062 | 0.9207 ± 0.0047 | 0.948 ± 0.11 | – | 0.913 ± 0.028 | 0.934 ± 0.045 | – | 1.12 ± 0.098 | 1.17 ± 0.13 | 0.717 ± 0.028 | –
12 | VCAP PROSTATE | 1.01 ± 0.11 | 1.04 ± 0.14 | 1.06 ± 0.21 | 1.04 ± 0.052 | 0.921 ± 0.12 | 1.02 ± 0.07 | 0.881 ± 0.15 | 0.908 ± 0.092 | – | 0.919 ± 0.097 | 1.02 ± 0.091 | 1.01 ± 0.031 | 1.08 ± 0.055 | 0.897 ± 0.061 | 0.429 ± 0.027 | 0.143 ± 0.0055
13 | SG32 HEADNECK | 0.993 ± 0.27 | 1.01 ± 0.2 | 0.984 ± 0.17 | 1.02 ± 0.035 | 0.704 ± 0.061 | 0.716 ± 0.14 | 0.682 ± 0.075 | 0.566 ± 0.17 | 0.809 ± 0.17 | 0.907 ± 0.093 | 0.931 ± 0.15 | 0.799 ± 0.11 | 0.955 ± 0.15 | – | 0.475 ± 0.06 | 0.359 ± 0.092
14 | MDAMB157 BREAST | 0.959 ± 0.026 | 0.91 ± 0.025 | 1.04 ± 0.053 | 1.03 ± 0.09 | 0.921 ± 0.088 | 1 ± 0.12 | 0.73 ± 0.03 | 0.691 ± 0.015 | – | 0.818 ± 0.016 | 0.967 ± 0.042 | 0.95 ± 0.029 | 0.877 ± 0.038 | 0.836 ± 0.097 | 0.451 ± 0.017 | 0.569 ± 0.071
15 | HCC1806 BREAST | 1.05 ± 0.074 | 0.879 ± 0.021 | 1.02 ± 0.024 | 1.07 ± 0.094 | 0.77 ± 0.076 | 0.74 ± 0.09 | 0.601 ± 0.046 | 0.521 ± 0.026 | 0.818 ± 0.034 | 0.74 ± 0.067 | 0.87 ± 0.029 | – | 1.06 ± 0.11 | 0.862 ± 0.018 | 0.502 ± 0.022 | 0.273 ± 0.0078
16 | SIHA CERVIX | 0.984 ± 0.028 | 1.06 ± 0.13 | 1.09 ± 0.03 | 1.01 ± 0.035 | 0.907 ± 0.064 | 0.934 ± 0.023 | 1.03 ± 0.021 | 0.832 ± 0.037 | 0.92 ± 0.038 | 0.931 ± 0.01 | – | 0.931 ± 0.034 | 0.99 ± 0.011 | 1.07 ± 0.068 | 0.676 ± 0.042 | 0.628 ± 0.075
17 | MHM BONE | 1.02 ± 0.025 | 1.02 ± 0.035 | 1.05 ± 0.015 | 1.06 ± 0.051 | 1.06 ± 0.039 | 1.074 ± 0.0062 | 1.09 ± 0.022 | 1.07 ± 0.041 | 0.982 ± 0.041 | 0.991 ± 0.02 | 0.991 ± 0.023 | 0.993 ± 0.023 | – | 0.977 ± 0.011 | 0.905 ± 0.018 | 0.817 ± 0.012
18 | HOSMNG BONE | 0.936 ± 0.055 | 0.988 ± 0.083 | 0.94 ± 0.14 | 0.857 ± 0.03 | 0.838 ± 0.032 | 0.885 ± 0.089 | 0.929 ± 0.11 | 0.954 ± 0.045 | 0.985 ± 0.018 | 1 ± 0.02 | 0.949 ± 0.016 | 0.949 ± 0.039 | 0.637 ± 0.066 | 0.518 ± 0.016 | 0.262 ± 0.013 | 0.17 ± 0.0051
